One molecule from patent publication US4370323A, “2-Cyanoaziridinyl-(1)-2-substituted-aziridinyl-(1)-methanes” (Boehringer Mannheim GmbH, priority 1976, dated 1983) can be followed below.

A word on the LD50: it is the dose expected to kill half of the subjects tested.

In one data set the test system is Walker-Carcinoma 256. Kind of data set: Cancerostatic effect: Walker-Carcinoma 256 transplanted in rats. In kind it is in vivo, female Sprague-Dawley rats. The note with it: for Tumor weight: three days prior to tumor application, day 7, average of 20 animals; for Difference (tumor weight): vs control. The method, then:
(§1) Ready-to-be-transplanted tumors of various kinds were taken from freshly killed rats, comminuted coarsely and pulverized with addition of 8 ml of physiological sodium chloride solution. Female Sprague-Dawley rats weighing 80 to 100 g were used as test animals. The respective tumor cell suspension was applied subfacially to the animals in an amount of 0.5 ml per animal under sterile conditions in the neck area. On the seventh day after the transplantation the animals were killed, the tumors taken out and weighed. The substances according to the instant invention were in each case applied orally three days prior to the tumor application by means of a throat tube (in 10 ml 1% hydrous methylhydroxylethyl cellulose solution per kg of body weight).

The subject of another data set is DC-Carcino-Sarcoma. Kind of data set: Cancerostatic effect: DC-Carcino-Sarcoma transplanted in rats. In kind it is in vivo, female Sprague-Dawley rats. Particulars: for Tumor weight: three days prior to tumor application, day 7, average of 20 animals; for Difference (tumor weight): vs control. Here is the method:
as §1

In another data set the test system is leucocyte number. Kind of data set: Alteration of the leucocyte number in rats. The format is in vivo, female Sprague-Dawley rats. The note with it: oral, fourth day, ten rats. The method, then:
(a) Alteration of the leucocyte number
The active substance was dissolved in each case in 10 ml of a 1% methyl-hydroxyethyl cellulose solution per kg of body weight and orally applied by means of a neck tube to ten fasting female Sprague-Dawley rats in each case. On the fourth day, blood was taken retroorbitally and the leucocyte number was determined by means of a coult counter.

A further data set deals with Candida albicans-219. As to the kind of experiment: Resistance increase in case of Candida albicans infection in mice. The format is in vivo, Candida albicans; female NMRI mice. Particulars: 50 mg per kg oral, one hour after i.v. infection, after six days. The method, then: Female, adult NMRI mice weighing 25-30 g were infected with Candida albicans-219. A suspension of approximately 300,000 germs in 0.2 ml physiological sodium chloride per animal was given intravenously. One hour later, 50 mg of the compound of Example 1, per kg body weight, were applied orally by way of neck tube, dissolved in 10 ml 0.1% methyl-hydroxyethyl cellulose. The control group received the same solution without active material. After six days, 18 of the 30 animals of the control group were dead, but only 3 of the 30 animals of the test group, which corresponds to a survival rate of 90% and makes clearly evident the resistance-increasing effect.

The test system of another data set is Candida albicans. As to the kind of experiment: In vitro fungistatic effect. The format is cell-based.
Data set [1] is described as follows: Acute toxicity (LD50) in rats. The note with it: rat, in vivo. The method, then:
(§2) These values are much higher than the pharmacologically effective dosages (0.5-50 mg/kg body weight).

Data set [2] can be described thus: Acute toxicity (LD50) in mice. The note with it: mouse, in vivo, ip, single intraperitoneal administration. Here is the method:
as §2

Consider `CC(C)(N1CC1C#N)N1CC1C(N)=O` (centres unmarked) [Example 1, 2-[2-Cyanoaziridinyl-(1)]-2-[2-carbamoylaziridinyl-(1)]-propane], for which the Tumor weight in the data set on Walker-Carcinoma 256 (5.0 mg/kg oral) was 11.8 g; with Walker-Carcinoma 256 (50.0 mg/kg oral), 12.1 g; with Walker-Carcinoma 256 (100.0 mg/kg oral), 15.6 g; in the data set on DC-Carcino-Sarcoma (150 mg/kg oral), 5.9 g; in the data set with DC-Carcino-Sarcoma (300 mg/kg oral), 9.8 g. Also, the “Difference (tumor weight)” value with Walker-Carcinoma 256 (5.0 mg/kg oral) was -27.1%; in the data set with Walker-Carcinoma 256 (50.0 mg/kg oral), -25.4%; with DC-Carcino-Sarcoma (150 mg/kg oral), -67.0%; with DC-Carcino-Sarcoma (300 mg/kg oral), -45.0%. For the same molecule, the figures for the “proportion of the average leucocyte number of the test group to that of the control group” value in the data set with leucocyte number (50 mg per kg body weight) and in the data set on leucocyte number (200 mg per kg body weight) were 1,70 and 1,55, respectively. Besides, in the data set on Candida albicans-219, the survival rate came out at 90%. Further, the dead animals with Candida albicans-219 (control 18 of 30) is 3 of the 30 animals. For the same molecule, in the data set with Candida albicans, the fungistatic effect result is recorded as “no fungistatic effect”. Further, the median lethal dose (LD50) in data set [1] (ip, single intraperitoneal administration, read-out: acute toxicity (LD50)) was 2550 mg/kg; in data set [1] (oral administration, read-out: LD50) it was 3100 mg/kg; in data set [2], 2270 mg/kg.
